Experimental data taken from US8700113B2, “Sensor for detection of carbohydrate” (Medtronic Minimed, Inc., priority 2004, dated 2014).

Experiments:
MBL [1] = target: T1, MBL (Homo sapiens, UniProt P11226); assay: Affinity of common carbohydrate moieties for MBL; format: binding; settings: for affinity for MBL, rank order of common carbohydrate moieties: value = moieties ranked next below (>) or above (<)
[2] = Comparison of stability of MBL and Con A in glucose assay
Method: Example 5 was repeated using MBL-AF594 and ConA-AF594 as lectin with 110 kDa HMCV1-dextran as analyte analogue in physiological TRIS buffer (pH 7.4, sodium, potassium and calcium present in physiological concentrations). […] Measurements were taken at 5 minute intervals using a miniaturized time resolved fluorimeter.

MBL [3] = target: T1, MBL; settings: cited from earlier work

T1 sequence (P11226 21-248, species assumed): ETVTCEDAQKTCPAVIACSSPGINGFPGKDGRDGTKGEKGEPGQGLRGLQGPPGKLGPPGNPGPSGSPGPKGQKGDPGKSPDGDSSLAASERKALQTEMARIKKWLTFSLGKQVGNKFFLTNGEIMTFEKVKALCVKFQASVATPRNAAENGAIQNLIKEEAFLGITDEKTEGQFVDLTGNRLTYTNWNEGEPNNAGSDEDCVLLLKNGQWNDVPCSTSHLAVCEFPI

| affinity for MBL, rank order of common carbohydrate moieties (MBL [1]) | Compound | further results |
| --- | --- | --- |
| > D-lyxose | O=C[C@@H](O)[C@H](O)[C@H](O)CO [D-arabinose] |  |
| D-lyxose | O=C[C@H](O)[C@@H](O)[C@@H](O)[C@H](O)CO [D-galactose] | affinity / binding to MBL in words (MBL [1]): very low affinity |
| > D-lyxose | O=C[C@H](O)[C@@H](O)[C@H](O)[C@H](O)CO [D-glucose] | affinity / binding to MBL in words (MBL [1]): high affinity |
| > D-lyxose | OC[C@H]1O[C@H](OC[C@H]2OC(O)(CO)[C@@H](O)[C@@H]2O)[C@H](O)[C@@H](O)[C@@H]1O (stereo partly drawn) [D-palatinose] |  |
| > D-lyxose | O=C(CO)[C@@H](O)[C@@H](O)[C@H](O)CO [D-tagatose] |  |
| D-lyxose | O=C[C@H](O)[C@@H](O)[C@@H](O)CO [L-arabinose] |  |
| > D-lyxose | O[C@H]1[C@H](O)[C@@H](O)[C@H](O)[C@@H](O)[C@H]1O [myo-inositol] |  |
| > D-lyxose | D-turanose |  |

Further lines, the compound ahead of its results:

| Compound | affinity for MBL, rank order of common carbohydrate moieties (MBL [1]) | further results |
| --- | --- | --- |
| O=C[C@@H](O)[C@@H](O)[C@H](O)[C@H](O)CO [D-Mannose] | > myo-inositol, D-glucose, D-arabinose, D-palatinose, D-turanose, D-sorbitol, D-ribose, D-tagatose | affinity / binding to MBL in words (MBL [1]): high affinity |
| O=C(CO)[C@@H](O)[C@H](O)[C@H](O)CO [D-fructose] | > myo-inositol, D-glucose, D-arabinose, D-palatinose, D-turanose, D-sorbitol, D-ribose, D-tagatose |  |
| OC[C@H]1O[C@H](O[C@@H]2CO[C@](O)(CO)[C@@H](O)[C@@H]2O)[C@H](O)[C@@H](O)[C@@H]1O [D-leucrose] | > myo-inositol, D-glucose, D-arabinose, D-palatinose, D-turanose, D-sorbitol, D-ribose, D-tagatose |  |
| O=C[C@@H](O)[C@@H](O)[C@H](O)CO [D-lyxose] | > lactose, L-arabinose, D-galactose |  |
| O=C[C@H](O)[C@H](O)[C@H](O)CO [D-ribose] | > D-lyxose |  |
| OC[C@@H](O)[C@@H](O)[C@H](O)[C@@H](O)CO [D-sorbitol] | > D-lyxose |  |
| C[C@H](O)[C@@H](O)[C@@H](O)[C@H](O)C=O [L-Fucose] | > myo-inositol, D-glucose, D-arabinose, D-palatinose, D-turanose, D-sorbitol, D-ribose, D-tagatose |  |
| CC(=O)N[C@H]1C(O)O[C@H](CO)[C@@H](O)[C@@H]1O (stereo partly drawn) [N-acetyl-D-glucosamine] | > myo-inositol, D-glucose, D-arabinose, D-palatinose, D-turanose, D-sorbitol, D-ribose, D-tagatose | affinity / binding to MBL in words (MBL [1]): high affinity |
| CC(=O)N[C@@H]1C(O)O[C@H](CO)[C@@H](O)[C@@H]1O (stereo partly drawn) [N-acetyl-D-mannosamine] | > myo-inositol, D-glucose, D-arabinose, D-palatinose, D-turanose, D-sorbitol, D-ribose, D-tagatose |  |
| OC[C@H]1O[C@@](CO)(O[C@H]2O[C@H](CO)[C@@H](O[C@H]3O[C@H](CO)[C@@H](O)[C@H](O)[C@H]3O)[C@H](O)[C@H]2O)[C@@H](O)[C@@H]1O [erlose] | > myo-inositol, D-glucose, D-arabinose, D-palatinose, D-turanose, D-sorbitol, D-ribose, D-tagatose |  |
| OC[C@H]1O[C@@H](O[C@H]2[C@H](O)[C@@H](O)C(O)O[C@@H]2CO)[C@H](O)[C@@H](O)[C@H]1O (stereo partly shown) [lactose] | D-lyxose |  |
| Concanavalin A |  | reduction in the measured phase ([2]; after 20 days, 110 kDa HMCV1-dextran, physiological TRIS buffer pH 7.4): more than 10%; time stable at body temperature ([2]; assay conditions, body temperature): less than 20 days |
| MBL-AF594: human MBL stained with Alexa Fluor 594 succinimidyl ester, 2.3 dyes per subunit |  | phase measurements at each glucose level over time ([2]; 110 kDa HMCV1-dextran, physiological TRIS buffer pH 7.4, glucose cycles 2.5-50 mM): constant over time |
| MBL: collagen-like C-type collectin, human MBL |  | time stable in a glucose assay ([2]; glucose assay): at least 17 days |
| SFGSGFGGGY [keratin peptide, peptide which mimics N-acetyl glucosamine] |  | inhibition of MBL (MBL [3]): can inhibit MBL |
